We go through 30 compounds from patent US20120302609A1, “Pyrazolines for the Modulation of PKM2” (Dynamix Pharmaceuticals LTD., priority 2011, published 2012).

This experiment has as its target T1, PKM2, human recombinant (Homo sapiens, UniProt P14618).
T1 construct: purchased BPS 50295
Put plainly: PKM2 enzymatic activity assay (Kinase-Glo Plus luminescence).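 On Max activity Group: percent increase over no-compound signal after subtracting the no-PKM2 background.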 It counts as biochemical. Particulars: for AC50: 0.1 nM PKM2, 0.1 mM ADP, 0.5 mM PEP, 1 hour, room temperature, read-out: AC50 group; for Emax: 1 h, read-out: Max activity Group; for Max activity: 30 μM. How it is done:
PKM2 performs the following enzymatic reaction, where the PKM2 substrates, PEP (phosphoenolpyruvate) and ADP, are converted to pyruvate and ATP as follows:
All of the enzymatic reactions were conducted in duplicates at room temperature for 1 hour in a 50 μL mixture containing: • PKM2 assay buffer (50 mM Imidazole, pH 7.2; 7 mM MgCl2; 50 mM KCl; 0.01% Tween; • and 0.05% BSA), 0.1 mM ADP, 0.5 mM PEP, 0.1 nM PKM2 enzyme (PKM2, human recombinant (BPS catalog number 50295)) and the indicated test compound. Fructose 1,6 biphosphat e, (FBP (Sigma)) was used as a positive control for activation at concentration of 0.5 mM. After enzymatic reactions, 50 μL of Kinase-Glo® Plus reagent (Promega kit) was added to each well and luminescence was measured using a BioTek Synergy™ 2 microplate reader.
PKM2 activity assays were performed in duplicates at each concentration. The luminescence data were analyzed using the computer software, GraphPad PRISM®. In the absence of the compound, the luminescence was defined as 0% activity. The percent activity in the presence of each compound was calculated according to the following equation:
% Activity=[(L−Lb)/(Lt−Lb)−1]×100%
where L=the luminescence in the presence of the test compound, Lb=the luminescence in the absence of PKM2, and Lt=the luminescence intensity in the absence of the test compound. The % activity values versus a series of compound concentrations were plotted using non-linear regression analysis of Sigmoidal dose-response curve generated with the equation Y=B+(T−B)/1+10^((LogEC50-X)×Hill Slope), where Y=percent activity, B=minimum percent activity, T=maximum percent activity, X=logarithm of compound and Hill Slope=slope factor or Hill coefficient. The AC50 values, shown in Table 2 were determined for the indicated test compounds as the concentration causing a half-maximal percent activity.
Background: Kinase-Glo reads ATP consumption through a luciferase reaction.

Where [1] appears, read: maximum percent activity, luminescence without compound = 0% activity.

T1 sequence (P14618 whole entry): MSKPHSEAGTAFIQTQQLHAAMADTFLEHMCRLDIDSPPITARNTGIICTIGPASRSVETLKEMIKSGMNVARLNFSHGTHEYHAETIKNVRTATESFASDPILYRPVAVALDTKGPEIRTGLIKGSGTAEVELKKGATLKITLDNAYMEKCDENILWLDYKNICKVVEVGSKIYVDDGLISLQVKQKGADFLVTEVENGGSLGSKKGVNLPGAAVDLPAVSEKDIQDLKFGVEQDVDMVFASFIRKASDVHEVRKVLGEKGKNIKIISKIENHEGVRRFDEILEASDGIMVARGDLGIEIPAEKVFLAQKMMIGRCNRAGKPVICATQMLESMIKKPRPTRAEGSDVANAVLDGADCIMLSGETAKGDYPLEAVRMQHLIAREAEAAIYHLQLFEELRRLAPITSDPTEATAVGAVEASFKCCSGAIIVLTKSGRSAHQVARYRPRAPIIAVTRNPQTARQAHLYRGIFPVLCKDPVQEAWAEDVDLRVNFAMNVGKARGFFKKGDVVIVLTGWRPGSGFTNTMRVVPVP

Regarding `COc1ccc(C2CC(c3ccc(NS(=O)(=O)c4c(F)cccc4F)cc3)=NN2C(=O)c2cccnc2)cc1` (stereo not shown) [Compound 15A, 2,6-difluoro-N-(4-(5-(4-methoxyphenyl)-1-nicotinoyl-4,5-dihydro-1H-pyrazol-3-yl)phenyl)benzenesulfonamide], the half-maximal activity concentration (AC50) lay within 1000 to 10000 nM. In addition, the Emax under setting [1] was ≥ 200%. For the compound `COc1ccc(C2CC(c3ccc(NS(C)(=O)=O)cc3)=NN2C(C)=O)cc1OC` (stereo not shown) [Compound 54A], the Max activity was 6% (30 μM). As for `COc1ccc(C2CC(c3ccc(NS(=O)(=O)c4ccc5c(c4)OCCO5)cc3)=NN2C(C)=O)cc1` (stereo not shown) [Compound 7A, N-(4-(1-acetyl-5-(4-methoxyphenyl)-4,5-dihydro-1H-pyrazol-3-yl)phenyl)-2,3-dihydrobenzo[b][1,4]dioxine-6-sulfonamide], the AC50 is 1000 to 10000 nM. Moreover, under setting [1], the Emax fell in the range of 130 to 200%. In the case of `CC(=O)N1N=C(c2ccc(NS(=O)(=O)c3ccc(F)cc3)cc2)CC1c1ccc(F)cc1` (racemic) [Compound 25A, N-(4-(1-Acetyl-5-(4-fluorophenyl)-4,5-dihydro-1H-pyrazol-3-yl)phenyl)-4-fluoro benzenesulfonamide], the concentration at half-maximal activity (AC50) was ≤ 1000 nM. In addition, the Emax under setting [1] was ≤ 130%. As to `COc1ccc(C2CC(c3ccc(NS(=O)(=O)c4ccccc4C(F)(F)F)cc3)=NN2C(C)=O)cc1` (stereo not shown) [Compound 20A], the concentration at half-maximal activity (AC50) is ≤ 1000 nM. In addition, the Emax under setting [1] lay in the range of 130 to 200%. In the case of `COc1ccc(C2CC(c3ccc(NS(=O)(=O)c4c(F)cccc4F)cc3)=NN2C(C)=O)cc1` (stereo not shown) [Compound 5A], the AC50 is ≤ 1000 nM. In addition, under setting [1], the Emax was ≥ 200%.

For the compound `CCS(=O)(=O)Nc1ccc(C2=NN(C(C)=O)C(c3ccccc3F)C2)cc1` (stereo not shown) [Compound 57A], the AC50 is ≤ 1000 nM. Besides, the Emax under setting [1] is ≤ 130%. Consider `CCS(=O)(=O)Nc1ccc(C2=NN(C(C)=O)C(c3ccc4c(c3)OCCO4)C2)cc1` (stereo not shown) [Compound 4A], for which the AC50 was ≤ 1000 nM. Further, the Emax under setting [1] was in the range of 130 to 200%. Consider `CCNS(=O)(=O)c1ccc(C2=NN(C(C)=O)C(c3ccc(OC)cc3)C2)cc1` (stereo not shown) [Compound 10A, 4-(1-acetyl-5-(4-methoxyphenyl)-4,5-dihydro-1H-pyrazol-3-yl)-N-ethylbenzenesulfonamide], for which the half-maximal activity concentration (AC50) is ≤ 1000 nM. Further, the Emax under setting [1] lay within 130 to 200%. For the compound `COc1ccc(C2CC(c3ccc(NS(=O)(=O)c4c(F)cccc4F)cc3)=NN2C(=O)c2ccccn2)cc1` (stereo not shown) [Compound 14A, 2,6-Difluoro-N-(4-(5-(4-methoxyphenyl)-1-picolinoyl-4,5-dihydro-1H-pyrazol-3-yl)phenyl)benzenesulfonamide], the AC50 was 1000 to 10000 nM. For the same compound, the Emax under setting [1] is ≤ 130%.

On to `CCS(=O)(=O)Nc1ccc(C2=NN(C(=O)c3ccco3)C(c3ccc(OC)cc3)C2)cc1` (stereo not shown) [Compound 53A], for which the AC50 was in the range of 1000 to 10000 nM. Also, the Emax under setting [1] is ≥ 200%. In the case of `COc1ccc(C2CC(c3ccc(NS(=O)(=O)c4cccc(Cl)c4)cc3)=NN2C(C)=O)cc1` (stereo not shown) [Compound 28A, N-(4-(1-Acetyl-5-(4-methoxyphenyl)-4,5-dihydro-1H-pyrazol-3-yl)phenyl)-3-chloro benzenesulfonamide], the AC50 was in the range of 1000 to 10000 nM. The Emax under setting [1] was ≤ 130%. For the compound `COc1ccc(C2CC(c3ccc(NS(=O)(=O)c4ccc(F)cc4)cc3)=NN2C(C)=O)cc1` (single isomer, unassigned) [Compound 12A], the AC50 was 10000 to 100000 nM. In addition, the Emax under setting [1] was ≤ 130%. In the case of `CC(=O)N1N=C(c2ccc(NS(=O)(=O)c3ccc(F)cc3)cc2)CC1c1ccc2c(c1)OCCO2` (stereo not shown) [Compound 8A, N-(4-(1-Acetyl-5-(2,3-dihydrobenzo[b][1,4]dioxin-6-yl)-4,5-dihydro-1H-pyrazol-3-yl)phenyl)-4-fluorobenzenesulfonamide], the AC50 is 1000 to 10000 nM. Under setting [1], the Emax lay in the range of 130 to 200%. Regarding `COc1cc(C2CC(c3ccc(NS(C)(=O)=O)cc3)=NN2C(C)=O)cc(OC)c1OC` (stereo not shown) [Compound 56A], the Max activity is listed as −6% (30 μM). Regarding `COc1ccc(C2CC(c3ccc(NS(=O)(=O)c4ccccc4)cc3)=NN2C(C)=O)cc1` (stereo not shown) [Compound 17A, N-(4-(1-Acetyl-5-(4-methoxyphenyl)-4,5-dihydro-1H-pyrazol-3-yl)phenyl)benzene sulfonamide], the AC50 was 1000 to 10000 nM. Further, under setting [1], the “Max activity Group” value is given as “C (C: ≦130%)”. Regarding `CCS(=O)(=O)Nc1ccc(C2=NN(C(C)=O)C(c3ccc(OC)cc3)C2)cc1` (single isomer, unassigned) [Compound 3A], the AC50 was ≤ 1000 nM. Also, the Emax under setting [1] is 130 to 200%. Consider `COc1ccc(C2CC(c3ccc(NS(=O)(=O)c4c(F)cccc4F)cc3)=NN2C(=O)c2ccco2)cc1` (stereo not shown) [Compound 11A, 2,6-Difluoro-N-(4-(1-(furan-2-carbonyl)-5-(4-methoxyphenyl)-4,5-dihydro-1H-pyrazol-3-yl)phenyl)benzenesulfonamide], for which the AC50 lay in the range of 1000 to 10000 nM. Moreover, the Emax under setting [1] is ≥ 200%. For the compound `CCS(=O)(=O)Nc1ccc(C2=NN(C(C)=O)C(c3ccc(OC)cc3)C2)cc1` (single isomer, unassigned) [Compound 2A, N-(4-(1-Acetyl-5-(4-methoxyphenyl)-4,5-dihydro-1H-pyrazol-3-yl)phenyl)ethane sulfonamide], the concentration at half-maximal activity (AC50) was ≤ 1000 nM. For `COc1ccc(C2CC(c3ccc(NS(=O)(=O)c4ccccc4)cc3)=NN2C(C)=O)cc1` (stereo not shown) [Compound 16A], the concentration at half-maximal activity (AC50) was in the range of 1000 to 10000 nM. Further, under setting [1], the Emax was in the range of 130 to 200%. For the compound `CCS(=O)(=O)Nc1ccc(C2=NN(C(C)=O)C(c3ccc(Cl)o3)C2)cc1` (stereo not shown) [Compound 59A], the Max activity is given as 47% (30 μM).

On to `COc1ccc(C2CC(c3ccc(NS(=O)(=O)c4ccc(OC)cc4)cc3)=NN2C(C)=O)cc1` (racemic) [Compound 19A, N-(4-(1-Acetyl-5-(4-methoxyphenyl)-4,5-dihydro-1H-pyrazol-3-yl)phenyl)-4-methoxy benzenesulfonamide], for which the AC50 was ≤ 1000 nM. Under setting [1], the Emax is ≥ 200%.

Take `CC(=O)N1N=C(c2ccc(NS(=O)(=O)c3ccc(F)cc3)cc2)CC1c1ccc(F)cc1` (single isomer, unassigned) [Compound 35A]: the AC50 was ≤ 1000 nM. Also, the Emax under setting [1] is ≤ 130%. On to `CC(=O)N1N=C(c2ccc(NS(C)(=O)=O)cc2)CC1c1ccc2c(c1)OCO2` (stereo not shown) [Compound 52A], for which the AC50 was ≤ 1000 nM. The Emax under setting [1] is ≤ 130%. In the case of `CCS(=O)(=O)Nc1ccc(C2=NN(S(C)(=O)=O)C(c3ccc(OC)cc3)C2)cc1` (stereo not shown) [Compound 55A], the Max activity was −5% (30 μM). Take `CC(=O)N1N=C(c2ccc(NS(=O)(=O)c3ccc(F)cc3)cc2)CC1c1ccc(F)c(F)c1` (stereo not shown) [Compound 27A, N-(4-(1-Acetyl-5-(3,4-difluorophenyl)-4,5-dihydro-1H-pyrazol-3-yl)phenyl)-4-fluoro benzenesulfonamide]: the AC50 fell in the range of 1000 to 10000 nM. Moreover, the Emax under setting [1] was ≤ 130%.

For `CC(=O)N1N=C(c2ccc(NS(=O)(=O)c3ccc(F)cc3)cc2)CC1c1ccc2c(c1)CCO2` (stereo not shown) [Compound 22A, N-(4-(1-Acetyl-5-(2,3-dihydrobenzofuran-5-yl)-4,5-dihydro-1H-pyrazol-3-yl)phenyl)-4-fluorobenzenesulfonamide], the half-maximal activity concentration (AC50) is ≤ 1000 nM. Further, the Emax under setting [1] was 130 to 200%.

In the case of `CC(=O)N1N=C(c2ccc3c(c2)CCN3S(C)(=O)=O)CC1c1ccc2c(c1)OCCO2` (stereo not shown) [Compound 9A, 1-(5-(2,3-dihydrobenzo[b][1,4]dioxin-6-yl)-3-(1-(methylsulfonyl)indolin-5-yl)-4,5-dihydro-1H-pyrazol-1-yl)ethanone], the AC50 lay within 10000 to 100000 nM. Besides, the Emax under setting [1] is ≤ 130%. Regarding `COc1ccc(C2CC(c3ccc(NS(=O)(=O)c4ccc(OC)c(F)c4)cc3)=NN2C(C)=O)cc1` (stereo not shown) [Compound 44A], the AC50 is ≤ 1000 nM. Besides, the Emax under setting [1] lay within 130 to 200%. As for `CCS(=O)(=O)Nc1ccc(C2=NN(C(C)=O)C(c3cccs3)C2)cc1` (stereo not shown) [Compound 67A], the concentration at half-maximal activity (AC50) was 10000 to 100000 nM. Moreover, the Emax under setting [1] lay in the range of 130 to 200%.

As a reminder, the AC50 is the concentration giving half of the maximal activity seen.
